Test results from patent US6204293A, “Inhibitors of protein isoprenyl transferases” (University of Pittsburgh, priority 1998, dated 2001).
Structures can show the parent of a compound that is named as a salt.

These molecules were tested against T1, Rat brain protein farnesyltransferase (Rattus norvegicus, UniProt Q02293+Q04631) (assay: % inhibition of farnesylation, scintillation proximity assay with biotin-K Ras B fragment). Conditions: Table 1; 1 × 10^-5 M.
T1 construct: Rat brain protein farnesyltransferase activity is measured; from tissue; host or cells: rat brain
T1 sequence (Q02293 whole entry, the tested form may be a part, one chain of several): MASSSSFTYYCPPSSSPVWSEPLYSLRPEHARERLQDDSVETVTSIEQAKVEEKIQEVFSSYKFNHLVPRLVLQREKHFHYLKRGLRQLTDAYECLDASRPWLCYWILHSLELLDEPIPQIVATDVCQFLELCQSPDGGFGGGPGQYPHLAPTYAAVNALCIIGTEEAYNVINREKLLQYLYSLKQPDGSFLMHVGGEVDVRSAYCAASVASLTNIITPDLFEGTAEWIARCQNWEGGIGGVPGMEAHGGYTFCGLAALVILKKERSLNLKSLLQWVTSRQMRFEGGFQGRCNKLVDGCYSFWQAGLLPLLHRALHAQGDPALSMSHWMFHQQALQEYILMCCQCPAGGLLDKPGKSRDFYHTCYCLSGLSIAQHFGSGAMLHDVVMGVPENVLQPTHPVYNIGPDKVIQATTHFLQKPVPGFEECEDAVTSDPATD
Format: biochemical
In short: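 Rat brain enzyme, purified through three steps, in a scintillation proximity assay kit with biotin-K Ras B fragment substrate at 0.1 mM final. Value is % inhibition of farnesylation.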

Compared with `CSCC[C@H](NC(=O)c1ccc(CNCCC2CCCCC2)cc1-c1ccccc1)C(=O)O` [Example 663], `CSCC[C@H](NC(=O)c1ccc(CNc2ccc(I)cc2)cc1-c1ccccc1)C(=O)O` [Example 688] is higher in “% inhibition at 1 × 10^-5 M” value: 43% for the first, 71% for the second.

`CSCC[C@H](NC(=O)c1ccc(CNC(CO)C(O)c2ccccc2)cc1-c1ccccc1)C(=O)O` (stereo partly shown) [Example 713] was tested, and the “% inhibition at 1 × 10^-5 M” value was 40%.

Same assay, conditions: Table 2; 1 × 10^-6 M

`CSCC[C@H](NC(=O)c1ccc(/C=C/CC(O)c2ccc3ccccc3c2)cc1-c1ccccc1C)C(=O)O` (stereo partly shown) [Example 474] and `CSCC[C@H](NC(=O)c1ccc(/C=C/c2ccc3ccccc3c2)cc1-c1ccccc1C)C(=O)O` [Example 465] are the same in “% inhibition at 1 × 10^-6 M” value: 92% for the first, 92% for the second.

Going from `CSCC[C@H](NC(=O)c1ccc(CN[C@H](C)CC2CCCCC2)cc1-c1ccccc1C)C(=O)O` [Example 613] to `CSCC[C@H](NC(=O)c1ccc(CN(CC(C)C)C(CC2CCCCC2)CC2CCCCC2)cc1-c1ccccc1C)C(=O)O` [Example 908], the “% inhibition at 1 × 10^-6 M” value falls from 97% to 88%.

Going from `CSCC[C@H](NC(=O)c1ccc(/C=C/CCc2ccccc2)cc1-c1ccccc1C)C(=O)O` [Example 472] to `CSCC[C@H](NC(=O)c1ccc(NCC(CO)Cc2ccccc2)cc1-c1ccccc1C)C(=O)O` (stereo partly shown) [Example 476], the “% inhibition at 1 × 10^-6 M” value falls from 97% to 91%.

Going from `CSCC[C@H](NC(=O)c1ccc(S(=O)(=O)NCCN2CCCCC2)cc1-c1ccccc1C)C(=O)O` [Example 774] to `CSCC[C@H](NC(=O)c1ccc(NC(=O)OCCCl)cc1-c1ccccc1)C(=O)O` [Example 979], the “% inhibition at 1 × 10^-6 M” value falls from 48% to 26%.

Going from `COC(=O)[C@H](CCSC)NC(=O)c1ccc(NC(=O)[C@@H]2CSCN2)cc1-c1ccccc1.Cl` [Example 164] to `CSCC[C@H](NC(=O)c1ccc(NC(=O)[C@@H]2CSCN2)cc1-c1ccccc1)C(=O)O` [Example 165], the “% inhibition at 1 × 10^-6 M” value falls from 92% to 74%.

First: CSCC[C@H](NC(=O)c1ccc(-c2cccc(-c3ccccc3)c2)cc1-c1ccccc1C)C(=O)[O-].[Li+] [Example 787]
Second: CSCC[C@H](NC(=O)c1ccc(CN(Cc2ccccc2)c2ccccc2)cc1-c1ccccc1C)C(=O)O [Example 406]
The “% inhibition at 1 × 10^-6 M” value of the first is lower: 70% for the first, 95% for the second.

Compared with `CSCC[C@H](NC(=O)c1ccc(CNc2ccccc2C(N)=O)cc1-c1ccccc1)C(=O)O` [Example 644], `CSCC[C@H](NC(=O)c1ccc(CN(CCO)c2ccccc2)cc1-c1ccccc1)C(=O)O` [Example 505] is higher in “% inhibition at 1 × 10^-6 M” value: 54% for the first, 72% for the second.

Same assay, conditions: Table 3; 1 × 10^-7 M

Compared with `CSCC[C@H](NC(=O)c1ccc(CNC(Cc2ccccc2)Cc2ccccc2)cc1-c1ccccc1C)C(=O)O` [Example 523], `COc1ccccc1N(Cc1ccccc1)Cc1ccc(C(=O)N[C@@H](CCSC)C(=O)O)c(-c2ccccc2C)c1` [Example 839] is lower in “% inhibition at 1 × 10^-7 M” value: 97% for the first, 63% for the second.

First: CSCC[C@H](NC(=O)c1ccc(CN[C@H](CSc2ccccc2)CC2CCCCC2)cc1-c1ccccc1C)C(=O)O [Example 623]
Second: CSCC[C@H](NC(=O)c1ccc(CN(Cc2ccc(Cl)cc2)c2ccccc2)cc1-c1ccccc1C)C(=O)O [Example 781]
The “% inhibition at 1 × 10^-7 M” value of the first is higher: 96% for the first, 91% for the second.

For `CSCC[C@H](NC(=O)c1ccc(C#Cc2cncnc2)cc1-c1ccccc1C)C(=O)[O-].[Li+]` [Example 493], the “% inhibition at 1 × 10^-7 M” value was 51%.

Same assay, conditions: Table 4; 1 × 10^-8 M

Going from `CSCC[C@H](NC(=O)c1ccc(CN(Cc2ccccc2)c2ccc(SC)cc2)cc1-c1ccccc1C)C(=O)[O-].[Li+]` [Example 852] to `CSCC[C@H](NC(=O)c1ccc(CN(Cc2ccccc2)c2ccc([N+](=O)[O-])cc2)cc1-c1ccccc1C)C(=O)O` [Example 843], the “% inhibition at 1 × 10^-8 M” value rises from 79% to 96%.

Going from `COc1cccc(CN(Cc2ccc(C(=O)N[C@@H](CCSC)C(=O)O)c(-c3ccccc3C)c2)c2ccccc2)c1` [Example 779] to `CSCC[C@H](NC(=O)c1ccc(/C=C/c2ccc(Oc3cccc(Cl)c3)cc2)cc1-c1ccccc1C)C(=O)O` [Example 858], the “% inhibition at 1 × 10^-8 M” value falls from 70% to 60%.

With `CSCC[C@H](NC(=O)c1ccc(NC[C@H]2NCC[C@H]2S)cc1-c1ccccc1)C(=O)O` [Example 960] the “% inhibition at 1 × 10^-8 M” value was greater than 50%.

Same assay, conditions: Table 6; * footnote 0.1 μM (title: 0.1 mM)

For `CCC(=O)N(CCCc1ccc(C(=O)N[C@@H](CCSC)C(=O)O)c(-c2ccccc2C)c1)C1CCCCC1` [Example 1145], the “% inhibition at 0.1 μM (*)” value was 83%.

Same assay, conditions: read-out: % inhibition at 0.01 μM (**)

Molecule `CSCC[C@H](NC(=O)c1ccc(COC(CCC2CCCCC2)c2ccnnc2)cc1-c1ccccc1C)C(=O)O` (stereo partly shown) [Example 1349, N-[4-(1-(Pyridazin-4-yl)-3-cyclohexylpropan-1-yloxymethyl)-2-(2-methylphenyl)benzoyl]methionine lithium salt] has an inhibition at 0.01 µM of 92%.

Same assay, conditions: read-out: % inhibition at 0.01 μM (**); Table 6; ** footnote 0.01 μM (title: 0.01 mM)

Compared with `COC[C@H](CC1CCCCC1)OCc1ccc(C(=O)N[C@@H](CCSC)C(=O)O)c(-c2ccccc2C)c1` [Example 1304, N-[4-(3-Cyclohexyl-1-methoxyprop-2-yloxymethyl)-2-(2-methylphenyl)benzoyl]methionine Lithium Salt], `CSCC[C@H](NC(=O)c1ccc(CO[C@H](COC(C)(C)C)CC2CCCCC2)cc1-c1ccccc1C)C(=O)O` [Example 1307] is lower in inhibition at 0.01 µM: 90% for the first, 85% for the second.

For `CSCC[C@H](NC(=O)c1ccc(COC(CCC2CCCCC2)c2cnnn2C)cc1-c1ccccc1C)C(=O)O` (stereo partly shown) [Example 1225, N-[4-(1-(1-Methyl-1,2,3-triaz-5-yl)-3-cyclohexylpropan-1-yloxymethyl)-2-(2-methylphenyl)benzoyl]methionine lithium salt], the inhibition at 0.01 µM was 92%.

Same assay, conditions: read-out: % inhibition at 0.1 μM (*); Table 6; * footnote 0.1 μM (title: 0.1 mM)

Going from `CCCCC(OCc1ccc(C(=O)N[C@@H](CCSC)C(=O)O)c(-c2ccccc2C)c1)c1sc(C)nc1C` (stereo partly shown) [Example 1098, N-[4-1-(2,4-dimethylthiazol-5-yl)pentyloxy)methyl-2-(2-methylphenyl)benzoyl]methionine lithium salt] to `COc1ccc(CO[C@H](COCc2ccc(C(=O)N[C@@H](CCSC)C(=O)O)c(-c3ccccc3C)c2)CC2CCCCC2)cc1` [Example 1316, N-[4-(3-Cyclohexyl-2-(4-methoxybenzyloxy)prop-1-yloxymethyl)-2-(2-methylphenyl)benzoyl]methionine Lithium Salt], the inhibition at 0.1 µM rises from 60% to 78%.

Same assay, conditions: read-out: % inhibition at 1 × 10^-6 M

`CSCC[C@H](NC(=O)c1ccc(CSCc2ccc(C)cc2)cc1-c1ccccc1C)C(=O)O` [Example 556, N-[4-(4-methylbenzyl)thiomethyl-2-(2-methylphenyl)benzoyl]methionine, lithium salt] showed an inhibition at 1 µM of 99%.

Same assay, conditions: read-out: % inhibition at 1 × 10^-6 M; Table 2; 1 × 10^-6 M

Going from `CSCC[C@H](NC(=O)c1ccc(COCc2ccco2)cc1-c1ccccc1C)C(=O)O` [Example 299, [4-(2-furylmethyloxymethyl)-2-(2-methylphenyl)benzoyl]methionine] to `Cc1ccccc1-c1cc(COCc2ccccc2)ccc1C(=O)N[C@@H](CCS(C)(=O)=O)C(=O)O` [Example 576, N-2-[4-(benzyloxymethyl)-2-(2-methylphenyl)benzoyl]amino-4-methanesulfonylbutanoic acid lithium salt], the inhibition at 1 µM falls from 94% to 88%.

Same assay, conditions: read-out: % inhibition at 1 × 10^-7 M

First: CSCC[C@H](NC(=O)c1ccc(COCc2ccc(Cl)cc2)cc1-c1ccccc1C)C(=O)O [Example 933, N-[4-(4-chlorobenzyloxymethyl)-2-(2-methylphenyl)benzoyl]methionine lithium salt]
Second: CSCC[C@H](NC(=O)c1ccc(COCc2ccc(C(C)C)cc2)cc1-c1ccccc1C)C(=O)O [Example 940, N-[4-(4-isopropylbenzyloxymethyl)-2-(2-methylphenyl)benzoyl]methionine lithium salt]
The inhibition at 0.1 µM of the first is lower: 91% for the first, 92% for the second.

Compared with `COc1ccc(-c2ccc(COCc3ccc(C(=O)N[C@@H](CCSC)C(=O)O)c(-c4ccccc4C)c3)o2)cc1` [Example 446, N-[4-(5-(4-methoxyphenyl)furan-2-ylmethoxymethyl)-2-(2-methylphenyl)benzoyl]methionine lithium salt], `CSCC[C@H](NC(=O)c1ccc(COCc2cccc3ccccc23)cc1-c1ccccc1C)C(=O)O` [Example 584, N-[4-(naphth-1-ylmethoxymethyl)-2-(2-methylphenyl)benzoyl]methionine lithium salt] is higher in inhibition at 0.1 µM: 91% for the first, 96% for the second.

Same assay, conditions: read-out: % inhibition at 1 × 10^-7 M; Table 3; 1 × 10^-7 M

Molecule `COc1ccc(CSCc2ccc(C(=O)N[C@@H](CCSC)C(=O)O)c(-c3ccccc3C)c2)cc1` [Example 558, N-[4-(4-methoxybenzyl)thiomethyl-2-(2-methylphenyl)benzoyl]methionine, lithium salt] has an inhibition at 0.1 µM of 87%.

Same assay, conditions: read-out: % inhibition at 1 × 10^-8 M

First: CSCC[C@H](NC(=O)c1ccc(COCc2cnc(-c3ccc(Cl)cc3)s2)cc1-c1ccccc1C)C(=O)O [Example 901, N-[4-(2-(4-chlorophenyl)thiazol-5-ylmethoxymethyl)-2-(2-methylphenyl)benzoyl]methionine lithium salt]
Second: CSCC[C@H](NC(=O)c1ccc(COCc2cccc(C(C)C)c2)cc1-c1ccccc1C)C(=O)O [Example 939, N-[4-(3-isopropylbenzyloxymethyl)-2-(2-methylphenyl)benzoyl]methionine lithium salt]
The inhibition at 0.01 µM of the first is higher: 84% for the first, 72% for the second.

With `CSCC[C@H](NC(=O)c1ccc(COCCCC23CC4CC(CC(C4)C2)C3)cc1-c1ccccc1C)C(=O)O` [Example 599, N-[4-(3-adamant-1-ylpropoxymethyl)-2-(2-methylphenyl)benzoyl]methionine lithium salt] the inhibition at 0.01 µM was 86%.

Same assay, conditions: read-out: % inhibition at 1 × 10^-8 M; Table 4; 1 × 10^-8 M

Molecule `CSCC[C@H](NC(=O)c1ccc(CO[C@H](CSC(C)(C)C)Cc2ccccc2)cc1-c1ccccc1C)C(=O)O` [Example 994, N-[4-(1-t-butylthio-3-phenylprop-2-oxymethyl)-2-(2-methylphenyl)benzoyl]methionine] has an inhibition at 0.01 µM of 83%.
